For experiment [1], the target named is T1, Carnitine acetyltransferase isolated from pigeon breast muscle (Columba livia, UniProt P52826).
T1 construct: CAT (isolated from pigeon breast muscle, ammonium sulfate suspension, CAS Number: 9029-90-7); purchased Sigma-Aldrich; host or cells: pigeon breast muscle (tissue-purified enzyme)
T1 sequence (P52826 31-627): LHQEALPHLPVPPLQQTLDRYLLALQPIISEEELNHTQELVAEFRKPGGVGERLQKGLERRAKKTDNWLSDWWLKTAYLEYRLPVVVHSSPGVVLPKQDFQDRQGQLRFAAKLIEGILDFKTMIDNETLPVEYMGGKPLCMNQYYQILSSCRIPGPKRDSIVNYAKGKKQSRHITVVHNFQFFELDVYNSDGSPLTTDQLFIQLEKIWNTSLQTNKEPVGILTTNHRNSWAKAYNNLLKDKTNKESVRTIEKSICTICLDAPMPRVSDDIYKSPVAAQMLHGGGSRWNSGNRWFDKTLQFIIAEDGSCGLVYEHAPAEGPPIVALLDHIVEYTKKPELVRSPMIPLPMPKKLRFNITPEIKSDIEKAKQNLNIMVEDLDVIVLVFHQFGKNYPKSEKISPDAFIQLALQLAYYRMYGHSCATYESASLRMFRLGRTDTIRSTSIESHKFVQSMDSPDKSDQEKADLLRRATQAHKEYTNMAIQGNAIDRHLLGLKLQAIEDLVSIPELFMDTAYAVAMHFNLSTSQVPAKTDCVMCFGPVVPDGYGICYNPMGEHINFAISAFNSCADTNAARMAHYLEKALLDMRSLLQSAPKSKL
As to the kind of experiment: CAT inhibition, IC50 determination (DTNB/Ellman reaction, absorbance at 405 nm). In kind it is biochemical. The note with it: c(L-carnitine) = 50.56 μM; 5 min preincubation at 37 °C; eight inhibitor concentrations, triplicate over three days. The text has this:
To assess the impact of the synthesized compounds on CAT activity and establish the structure-activity relationship, we initially determined the concentration needed to reduce the enzyme activity by 50% (IC50) under the same reaction conditions. We slightly modified a method proposed by Marquis and Fritz, which allows for the quantification of the consumed L-carnitine by observing its conversion to acetyl L-carnitine using a reaction with 5,5′-dithiobis-(2-nitrobenzoic acid) (DTNB or Ellman’s reagent) and CoA to produce 2-nitro-5-thiobenzoic acid (TNB). We opted to determine the IC50 at a substrate concentration that yields a [S]/Km ratio of about 0.01 (c(L-carnitine) = 50.56 μM and Km = 3.0 mM) to ensure that the IC50 is virtually independent of [S]. We also used a kinetic approach, measuring the reaction rate over a time interval Δt, during which the dependence is linear (approximately 10–15% substrate conversion). The readings were taken within the first minute after the reaction began, and the degree of inhibition was determined as described in Section 3.3.1. The IC50 values for each compound were obtained by analyzing the percentage inhibition at eight different inhibitor concentrations, with each measurement conducted in triplicate over three consecutive days. The average values of the IC50 obtained are outlined in Figure 4.
(§1) Carnitine acetyltransferase isolated from pigeon breast muscle, ammonium sulfate suspension (CAS Number: 9029-90-7), with activity 71 U/mg protein (1U converts 1 μmol L-carnitine and 1 μmol AcCoA in Acetylcarnitine and free CoA in 1 min) was diluted with phosphate buffer (0.5 M, pH = 7.6) to obtain stock solution with concentration 24 U/mL. Ellman reagent was freshly prepared just before use by dissolving 25 mg DTNB in 5 mL 1 mM solution of Na2EDTA in phosphate buffer (0.5 M, pH = 7.6), the final concentration of DTNB in this solution being 12.8 mM. AcCoA, L-carnitine, and each of the tested compounds were dissolved in distilled water in order to obtain desired stock solutions with concentration c (AcCoA) = 348.0 μM and c (L-carnitine) = 303.4 μM (for IC50 determination). Tris-buffer solution was prepared by dissolving Tris. HCl in distilled water and pH was adjusted with NaOH to pH = 7.6, the final concentration of the solution being 1 M. The final volume of the reaction mixture was 300 μL, which included 50 μL of each stock solution of CAT, AcCoA, L-carnitine, DTNB, Tris-buffer, and test compound. In control probes, 50 μL distilled water was added instead of test compound. A mixture of CAT, AcCoA, DTNB, Tris-buffer, and test compounds were incubated for 5 min at 37 °C. The reaction was initiated by adding L-carnitine, and the reaction rate was monitored by measuring the absorbance at 405 nm.
Inhibition activity was assessed by calculating the reaction rate during the initial minute, within the linear range of A/t, utilizing the following formula:%Inh = 100 × ((ΔA/Δt)control − (ΔA/Δt) Inh)/((ΔA/Δt) control)
To obtain preliminary data for the IC50 values, we initially screened each compound at a final concentration of 5 mM. […] The half-maximal inhibitory concentration (IC50) was determined by plotting the response (A) against the concentration (c) of the inhibitor. All analyses were performed in triplicate over three consecutive days, and the corresponding IC50 values were averaged.
(In general: In Ellman's method for cholinesterases, released thiocholine reacts with DTNB.)

The target in the next experiment is CAT. More on the design: method as in PMID 19912061. As to conditions: comparison value for the established drug; no kinetic study of it described here; no reference printed at the place (cf. ref 44); cited from earlier work.
The target in experiment [2] is T1, Carnitine acetyltransferase isolated from pigeon breast muscle. Description: CAT enzyme kinetics, mechanism of inhibition and Ki. In kind it is biochemical. Here is the method:
Substrate concentrations were selected in the range of 0.2 to five times the Km value (Km = 0.3 mM) to facilitate effective inhibition detection at elevated levels while ensuring sufficient substrate availability for the reaction at increased inhibitor concentrations. […] The experiments enabled identification of the inhibition mechanism alongside calculations of Km, Vmax, and Ki. We utilized SigmaPlot version 12.5 (Systat Software Inc. San Jose, CA, USA), which incorporates modules for regression analysis and various inhibition models. The numerical results are summarized in Table 3, while the corresponding Lineweaver –Burk and Michaelis–Menten kinetic plots are available in the Supplementary Materials.
as §1, with “HCl in distilled water and pH was adjusted with NaOH to pH = 7.6, the final concentration of the solution being 1 M. The final volume of the reaction mixture was 300 μL, which included 50 μL of each stock solution of CAT, AcCoA, L-carnitine, DTNB, Tris-buffer, and test compound. In control probes, 50 μL distilled water was added instead of test compound. A mixture of CAT, AcCoA, DTNB, Tris-buffer, and test compounds were incubated for 5 min at 37 °C.” left out
The absorbance at 405 nm was measured every 6 s between the 30th second and the 3rd minute for all probes (in the linear range). The initial velocity (v0) was determined as the intercept of the velocity (v) versus time (t) graph. […]

SMILES strings stand for the structures.

In the case of `C[N+](C)(C)NCCC(=O)[O-]` [Meldonium, reference compound], the IC50 (as a rule, the concentration needed to halve the response being measured) in experiment [1] was 11.4 mM. Also, the Ki – broadly, the equilibrium dissociation constant of an inhibitor or competing ligand from its target – at CAT is 1.63 mM. On to `CCOC(=O)CCC[N+](C)(C)CC` [MeGBB-ester, 4-ethoxy-N-ethyl-N,N-dimethyl-4-oxobutan-1-aminium bromide, reference compound], for which the IC50 in experiment [1] is 21.6 ± 1.4 mM. Still for that read-out and setting: for `CCOC(=O)CCC[N+]1(C)CCOCC1` [Compound 3-ester, 4-(4-ethoxy-4-oxobutyl)-4-methylmorpholin-4-ium bromide] the value was 29.9 ± 1.5 mM; for `CN(C)c1cc[n+](CCCC(=O)[O-])cc1` [DMAP-GBB, 4-(4-(dimethylamino)pyridin-1-ium-1-yl)butanoate], 10.4 ± 1.5 mM; for `Cn1cc[n+](CCCC(=O)[O-])c1` [Mim-GBB, 4-(1-methyl-1H-imidazol-3-ium-3-yl)butanoate], 14 ± 0.9 mM.

`CCOC(=O)CCC[N+]1(C)CCCCC1` [Compound 2-ester, 1-(4-ethoxy-4-oxobutyl)-1-methylpiperidin-1-ium bromide]: in experiment [1], the midpoint of inhibition, the IC50, lay at 22.8 ± 1.8 mM. As to `C[N+]1(CCCC(=O)[O-])CCCC1` [Pyrr-GBB, 4-(1-methylpyrrolidin-1-ium-1-yl)butanoate], 14.1 ± 1.91 mM corresponded to half-maximal inhibition in experiment [1] (IC50). Same read-out and setting: for `CCOC(=O)CCC[N+]1(C)CCCC1` [Compound 1-ester, 1-(4-ethoxy-4-oxobutyl)-1-methylpyrrolidin-1-ium bromide] the value was 28.5 ± 0.6 mM. `C[N+]1(CCCC(=O)[O-])CCOCC1` [Morph-GBB, 4-(4-methylmorpholino-4-ium)butanoate] came in with an IC50 in experiment [1] of 23.7 ± 2.2 mM. For `O=C([O-])CCC[n+]1ccccc1` [Pyr-GBB, 4-(pyridin-1-ium-1-yl)butanoate], the IC50 in experiment [1] was 43.6 ± 4.2 mM. In experiment [1], `O=C([O-])CCC[n+]1ccc2ccccc2c1` [i-qui-GBB, 4-(isoquinolin-2-ium-2-yl)butanoate] came in with a half-inhibitory concentration (IC50) of 2.24 ± 0.21 mM. Also, the “Type of inhibition of CAT” value in experiment [2] (best fit: highest R^2, lowest AIC) is reported as “competitive inhibitor”. In experiment [2] (competitive model, nonlinear regression (SigmaPlot), inhibitor 1.88 mM and 3.75 mM), this molecule registered a Ki of 3.5 mM. The “Inhibition of CAT reaction rate versus blank samples” value in experiment [2] (inhibitor concentration 0.94 mM) is “lack of inhibition”. Consider `CC[N+](C)(C)CCCC(=O)[O-]` [MeGBB, 4-(ethyldimethylammonio)butanoate, reference compound], for which the IC50 in experiment [1] was 9.32 ± 0.47 mM. In turn, `C[N+]1(CCCC(=O)[O-])CCCCC1` [Pip-GBB, 4-(1-methylpiperidin-1-ium-1-yl)butanoate] displayed a 50% inhibitory concentration (IC50) in experiment [1] of 5.78 ± 1.2 mM.

Values taken from paper PMC11820905, “Rational Design, Synthesis, and In Vitro Activity of Heterocyclic Gamma-Butyrobetaines as Potential Carnitine Acetyltransferase Inhibitors” (Molecules, 2025).
